Measured values taken from US20030161862A1, “Bacterial growth regulators or inhibitors with the use of 1,5-d-anhydrofructose” (priority 2000, published 2003).
Entries after “also recorded” stand apart in the source; their conditions may differ.

Assays:
Format in all cases: cell-based
[1] = tested on: Bacillus cereus IFO 3131; test: growth suppression/inhibition on agar media, colonies observed visually
Method: (§1) Under the circumstances, influences on growth of a variety of bacteria in the presence of 1,5-D-anhydrofructose with or without sodium ascorbate which is a typical antioxidant to be used in food and beverages were examined.
(§2) After the bacterial strains were suspended in physiological salt solutions, they were inoculated into agar media (each containing 0.25% of yeast extract, 0.5% of polypeptone, […]) with platinum loops and then cultured at 37° C. until colonies were formed. Thereafter, the bacteria were inoculated, with sterilized toothpicks, from the colonies into agar media of the above composition each of which contained 1.0% of sodium ascorbate and 1.0% of 1,5-D-anhydrofructose, and into agar media of the above composition each of which contained 1.0% of 1,5-D-anhydrofructose and no sodium ascorbate. For controls, culture media of the same composition each of which contained neither sodium ascorbate nor 1,5-D-anhydrofructose and culture media of the same composition each of which contained 1.0% of sodium ascorbate and no 1,5-D-anhydrofructose were used. Abilities of sodium ascorbate and 1,5-D-anhydrofructose to suppress/inhibit growth of the bacteria were evaluated by visually observing the colonies formed after the bacteria were cultured at 37° C. for one night.
(§3) The substances were used at concentrations shown in the legend of Table 4.
(§4) Those cultured in the absence of the chelating agents, 1,5-D-anhydrofructose, sodium ascorbate and sodium erythorbate were taken as controls. As for an agar medium, a method for inoculating the bacteria, conditions for culturing the bacteria, and a method for evaluating a growth suppressing/inhibiting ability, they are the same as those used in the tests whose results are shown in Tables 2 and 3.

[2] = tested on: Lactobacillus casei ATCC 393; test: as above
Method: as §1, §2, §3, §4

[3] = tested on: Escherichia coli IFO 3301; test: as above
Method: as §1, §2, §3, §4

[4] = tested on: Proteus vulgaris IFO 3851; test: as above
Method: as §1, §2, §3, §4

[5] = tested on: a variety of bacteria (strains of Table 1); test: growth suppression on agar media, summary statements for all tested bacteria; conditions: for growth suppressing ability when solely used: solely used at the concentrations of the tests (sodium ascorbate 1.0%, sodium erythorbate 0.2%, chelating agents 0.2-0.5%); for effect of enhancing the growth suppressing effect of 1,5-D-anhydrofructose: co-presence with 1,5-D-anhydrofructose, no data shown
Method: (§5) When a variety of bacteria are cultured in agar media in the presence of 1,5-D-anhydrofructose without any of an antioxidant or a chelating agent, a minimum growth inhibitory concentration of 1,5-D-anhydrofructose is 3.0 to 5.0% for gram-negative bacteria and 1.0 to 3.0% for gram-positive bacteria. Under the circumstances, influences on growth of a variety of bacteria in the presence of 1,5-D-anhydrofructose with or without sodium ascorbate which is a typical antioxidant to be used in food and beverages were examined.
(§6) After the bacterial strains were suspended in physiological salt solutions, they were inoculated into agar media (each containing 0.25% of yeast extract, 0.5% of polypeptone, 1.0% of glucose and 1.5% of soft agar and having a pH of 6.5) with platinum loops and then cultured at 37° C. until colonies were formed. Thereafter, the bacteria were inoculated, with sterilized toothpicks, from the colonies into agar media of the above composition each of which contained 1.0% of sodium ascorbate and 1.0% of 1,5-D-anhydrofructose, and into agar media of the above composition each of which contained 1.0% of 1,5-D-anhydrofructose and no sodium ascorbate. For controls, culture media of the same composition each of which contained neither sodium ascorbate nor 1,5-D-anhydrofructose and culture media of the same composition each of which contained 1.0% of sodium ascorbate and no 1,5-D-anhydrofructose were used. Abilities of sodium ascorbate and 1,5-D-anhydrofructose to suppress/inhibit growth of the bacteria were evaluated by visually observing the colonies formed after the bacteria were cultured at 37° C. for one night.
as §4

[6] = tested on: Streptococcus eqinus ATCC 9812; test: growth suppression/inhibition on agar media, colonies observed visually; conditions: agar medium pH 6.5, 37° C. one night
Text: as §1, §6, §3, §4

[7] = tested on: Enterobactor cloacae JCM 1232; test: as above; conditions: agar medium pH 6.5, 37° C. one night
Text: as §1, §6, §3, §4

[8] = tested on: Pseudomonas aeruginosa IFO 12689; test: as above; conditions: agar medium pH 6.5, 37° C. one night
Text: as §1, §6, §3, §4

[9] = tested on: Bacillus subtillis IFO 3009; test: as above; conditions: agar medium pH 6.5, 37° C. one night
Text: as §1, §6, §3, §4

[10] = tested on: gram-positive bacteria; test: minimum growth inhibitory concentration / growth inhibition in agar media; conditions: for growth inhibitory effect against gram-positive bacteria: 0.5%, used independently, agar medium pH 7.0
Method: as §5, §2, §3

[11] = tested on: Streptococcus eqinus ATCC 9812; test: growth suppression/inhibition on agar media, colonies observed visually; conditions: agar medium pH 7.0, 37° C. one night; BHA 0.5%, BHT 0.5%, 1,5-D-anhydrofructose 1%
[12] = tested on: Enterobactor cloacae JCM 1232; test: as above; conditions: agar medium pH 7.0, 37° C. one night; BHA 0.5%, BHT 0.5%, 1,5-D-anhydrofructose 1%
[13] = tested on: Pseudomonas aeruginosa IFO 12689; test: as above; conditions: agar medium pH 7.0, 37° C. one night; BHA 0.5%, BHT 0.5%, 1,5-D-anhydrofructose 1%
[14] = tested on: Bacillus subtillis IFO 3009; test: as above; conditions: agar medium pH 7.0, 37° C. one night; BHA 0.5%, BHT 0.5%, 1,5-D-anhydrofructose 1%
[15] = agar medium pH 6.5, 37° C. one night, 1,5-D-anhydrofructose 1%, sodium citrate 0.5%, sodium polyphosphate 0.2%, sodium malate 0.5%, sodium gluconate 0.5%, sodium tartrate 0.5%, sodium ascorbate 1%, sodium erythorbate 0.2%
[16] = agar medium pH 6.5, 37° C. one night, sodium erythorbate 0.2%, 1,5-D-anhydrofructose 1%
[17] = 1,5-D-anhydrofructose 1%, sodium citrate 0.5%, sodium polyphosphate 0.2%, sodium malate 0.5%, sodium gluconate 0.5%, sodium tartrate 0.5%, sodium ascorbate 1%, sodium erythorbate 0.2%
[18] = sodium erythorbate 0.2%, 1,5-D-anhydrofructose 1%
[19] = agar medium pH 6.5, 37° C. one night, sodium ascorbate 1%, 1,5-D-anhydrofructose 1%
[20] = sodium ascorbate 1%, 1,5-D-anhydrofructose 1%
[21] = agar medium pH 7.0, 37° C. one night, BHA 0.5%, BHT 0.5%, 1,5-D-anhydrofructose 1%

Compound: O=C1O[C@H]([C@H](O)CO)C([O-])=C1O.[Na+] [sodium erythorbate]
- condition of the colonies [1, 15]: +
- condition of the colonies [1, 16]: +
- condition of the colonies [2, 15]: +
- condition of the colonies [2, 16]: +
- condition of the colonies [3, 15]: +
- condition of the colonies [3, 16]: +
- condition of the colonies [4, 15]: +
- condition of the colonies [4, 16]: +
- growth suppressing ability when solely used [5]: do not inhibit growth of the bacteria
- condition of the colonies [6, 17]: +
- condition of the colonies [6, 18]: +
- condition of the colonies [7, 17]: +
- condition of the colonies [7, 18]: +
- condition of the colonies [8, 17]: +
- condition of the colonies [8, 18]: +
- condition of the colonies [9, 17]: +
- condition of the colonies [9, 18]: +

Compound: sodium polyphosphate
- condition of the colonies [1, 15]: +
- condition of the colonies [2, 15]: +
- condition of the colonies [3, 15]: +
- condition of the colonies [4, 15]: +
- condition of the colonies [6, 17]: +
- condition of the colonies [7, 17]: +
- condition of the colonies [8, 17]: +
- condition of the colonies [9, 17]: +

Compound: O=C1O[C@H]([C@@H](O)CO)C([O-])=C1O.[Na+] [sodium ascorbate]
- condition of the colonies [1, 15]: +
- condition of the colonies [1, 19]: +
- condition of the colonies [2, 15]: +
- condition of the colonies [2, 19]: +
- condition of the colonies [3, 15]: +
- condition of the colonies [3, 19]: +
- condition of the colonies [4, 15]: +
- condition of the colonies [4, 19]: +
- growth suppressing ability when solely used [5]: does not have a growth suppressing ability against any of the bacteria; also recorded: do not inhibit growth of the bacteria
- condition of the colonies [6, 17]: +
- condition of the colonies [6, 20]: +
- condition of the colonies [7, 17]: +
- condition of the colonies [7, 20]: +
- condition of the colonies [8, 17]: +
- condition of the colonies [8, 20]: +
- condition of the colonies [9, 17]: +
- condition of the colonies [9, 20]: +

Compound: O=C([O-])[C@H](O)[C@@H](O)[C@H](O)[C@H](O)CO.[Na+] [sodium gluconate]
- condition of the colonies [1, 15]: +
- condition of the colonies [2, 15]: +
- condition of the colonies [3, 15]: +
- condition of the colonies [4, 15]: +
- condition of the colonies [6, 17]: +
- condition of the colonies [7, 17]: +
- condition of the colonies [8, 17]: +
- condition of the colonies [9, 17]: +

Compound: O=C([O-])C(O)C(O)C(=O)[O-].[Na+].[Na+] (stereo not shown) [sodium tartrate]
- condition of the colonies [1, 15]: +
- condition of the colonies [2, 15]: +
- condition of the colonies [3, 15]: +
- condition of the colonies [4, 15]: +
- condition of the colonies [6, 17]: +
- condition of the colonies [7, 17]: +
- condition of the colonies [8, 17]: +
- condition of the colonies [9, 17]: +

Compound: Cc1cc(C(C)(C)C)c(O)c(C(C)(C)C)c1 [BHT, dibutylhydroxytoluene]
- growth inhibitory effect against gram-positive bacteria [10]: exhibited a growth inhibitory effect against all of the examined gram-positive bacteria
- condition of the colonies [1, 21]: −
- condition of the colonies [2, 21]: −
- condition of the colonies [3, 21]: +
- condition of the colonies [4, 21]: ±
- condition of the colonies [11]: −
- condition of the colonies [12]: +
- condition of the colonies [13]: +
- condition of the colonies [14]: −

Compound: catechin
- effect of enhancing the growth suppressing effect of 1,5-D-anhydrofructose [5]: exhibit the above effect

Compound: O=C([O-])CC(O)C(=O)[O-].[Na+].[Na+] (stereo not shown) [sodium malate]
- condition of the colonies [1, 15]: +
- condition of the colonies [2, 15]: +
- condition of the colonies [3, 15]: +
- condition of the colonies [4, 15]: +
- condition of the colonies [6, 17]: +
- condition of the colonies [7, 17]: +
- condition of the colonies [8, 17]: +
- condition of the colonies [9, 17]: +

Compound: O=C1CO[C@H](CO)[C@@H](O)[C@@H]1O [1,5-D-anhydrofructose]
- minimum growth inhibitory concentration ([10]; agar media, without any antioxidant or chelating agent): 1.0 to 3.0%
- condition of the colonies [1, 15]: ±
- condition of the colonies [1, 19]: ±
- condition of the colonies [1, 16]: ±
- condition of the colonies [1, 21]: ±
- condition of the colonies [2, 15]: ±
- condition of the colonies [2, 19]: ±
- condition of the colonies [2, 16]: ±
- condition of the colonies [2, 21]: ±
- condition of the colonies [3, 15]: +
- condition of the colonies [3, 19]: +
- condition of the colonies [3, 16]: +
- condition of the colonies [3, 21]: +
- condition of the colonies [4, 15]: ±
- condition of the colonies [4, 19]: ±
- condition of the colonies [4, 16]: ±
- condition of the colonies [4, 21]: ±
- condition of the colonies [11]: ±
- condition of the colonies [12]: +
- condition of the colonies [13]: +
- condition of the colonies [14]: +
- condition of the colonies [6, 17]: ±
- condition of the colonies [6, 20]: ±
- condition of the colonies [6, 18]: ±
- condition of the colonies [7, 17]: +
- condition of the colonies [7, 20]: +
- condition of the colonies [7, 18]: +
- condition of the colonies [8, 17]: +
- condition of the colonies [8, 20]: +
- condition of the colonies [8, 18]: +
- condition of the colonies [9, 17]: +
- condition of the colonies [9, 20]: +
- condition of the colonies [9, 18]: +

Compound: tocopherol
- effect of enhancing the growth suppressing effect of 1,5-D-anhydrofructose [5]: exhibit the above effect

Compound: COc1ccc(O)c(C(C)(C)C)c1 [BHA, butylhydroxyanisol]
- growth inhibitory effect against gram-positive bacteria [10]: exhibited a growth inhibitory effect against all of the examined gram-positive bacteria
- condition of the colonies [1, 21]: −
- condition of the colonies [2, 21]: −
- condition of the colonies [3, 21]: −
- condition of the colonies [4, 21]: −
- condition of the colonies [11]: −
- condition of the colonies [12]: ±
- condition of the colonies [13]: +
- condition of the colonies [14]: −

Compound: O=C([O-])CC(O)(CC(=O)[O-])C(=O)[O-].[Na+].[Na+].[Na+] [sodium citrate]
- condition of the colonies [1, 15]: +
- condition of the colonies [2, 15]: +
- condition of the colonies [3, 15]: +
- condition of the colonies [4, 15]: +
- condition of the colonies [6, 17]: +
- condition of the colonies [7, 17]: +
- condition of the colonies [8, 17]: +
- condition of the colonies [9, 17]: +
